# Results from US11832662B2, “Methods and devices for preventing viral transmission” (priority 2020, dated 2023).
# Read-outs that look alike come from different tables or passages of the source.
# Columns and labels:
# HUVEC cells [1] = test: EF-induced reorientation of endothelial cells (orientation index Oi); format: cell-based, human
# Description: HUVEC cells were seeded in a trough formed by two parallel (1 cm apart) strips of glass coverslip (No. 1, length of 22 mm) fixed to the base of the dish with silicone grease. Scratch lines were made perpendicular to the long axis of the chamber with a fine sterile needle and used as reference marks for directed cell migration. Cells were incubated for 24-48 hours (37° C., 5% CO2) before a roof coverslip was applied and sealed with silicone grease. The final dimensions of the chamber, through which current was passed, were 22×10×0.2 mm. Agar-salt bridges not less than 15 cm long were used to connect silver/silver-chloride electrodes in beakers of Steinberg's solution (58 mM NaCl, 0.67 mM KCl, 0.44 mM Ca(NO3)2, 1.3 mM MgSO4, 4.6 mM Trizma base, pH 7.8-8.0), to pools of excess culture medium at either side of the chamber. Field strengths were measured directly at the beginning of, the end of and during each experiment. […] (50 μM), the Rho kinase inhibitor Y27632 (50 μM), both Akt and Rho kinase inhibitors (10 μM each) or latrunculin (50 nM) for 1 hour before EF stimulation. The same concentration of drug was present during EF exposure in a CO2 incubator.
# A series of images was taken with an image analyser immediately before EF exposure and at 4, 8 and 24 hours of EF exposure. Cell orientation was quantified as an orientation index (Oi), which is defined as Oi=cos 2(α), where a is the angle formed by the long axis of a cell with a line drawn perpendicular to the field lines. A cell with its long axis parallel to the vector of the EF will have an Oi of −1, and a cell with its long axis exactly perpendicular to the EF vector will have an Oi of +1. A randomly oriented population of cells will have an average Oi {defined as [Σn cos 2(α)]÷n} of 0. The significance of this two-dimensional orientation distribution against randomness was calculated using Rayleigh's distribution. A long:short axis ratio was calculated for assessment of elongation.
# HUVEC cells [2] = test: EF-induced elongation of endothelial cells (long:short axis ratio); format: cell-based, human; conditions: versus control
# Description: HUVEC cells were seeded in a trough formed by two parallel (1 cm apart) strips of glass coverslip (No. 1, length of 22 mm) fixed to the base of the dish with silicone grease. Scratch lines were made perpendicular to the long axis of the chamber with a fine sterile needle and used as reference marks for directed cell migration. Cells were incubated for 24-48 hours (37° C., 5% CO2) before a roof coverslip was applied and sealed with silicone grease. The final dimensions of the chamber, through which current was passed, were 22×10×0.2 mm. Agar-salt bridges not less than 15 cm long were used to connect silver/silver-chloride electrodes in beakers of Steinberg's solution (58 mM NaCl, 0.67 mM KCl, 0.44 mM Ca(NO3)2, 1.3 mM MgSO4, 4.6 mM Trizma base, pH 7.8-8.0), to pools of excess culture medium at either side of the chamber. Field strengths were measured directly at the beginning of, the end of and during each experiment. No fluctuations in field strength were observed. […] (50 μM), the Rho kinase inhibitor Y27632 (50 μM), both Akt and Rho kinase inhibitors (10 μM each) or latrunculin (50 nM) for 1 hour before EF stimulation. The same concentration of drug was present during EF exposure in a CO2 incubator.
# A series of images was taken with an image analyser immediately before EF exposure and at 4, 8 and 24 hours of EF exposure. Cell orientation was quantified as an orientation index (Oi), which is defined as Oi=cos 2(α), where a is the angle formed by the long axis of a cell with a line drawn perpendicular to the field lines. A cell with its long axis parallel to the vector of the EF will have an Oi of −1, and a cell with its long axis exactly perpendicular to the EF vector will have an Oi of +1. […] The significance of this two-dimensional orientation distribution against randomness was calculated using Rayleigh's distribution. A long:short axis ratio was calculated for assessment of elongation.
# HUVEC cells elongated dramatically in an EF. […] We quantified the elongation of the cells using a long:short axis ratio. […]
# [3] = test system: HaCaT human keratinocytes; test: Scratch assay, keratinocyte migration, Example 3; format: cell-based; conditions: LLEC-treated cells, N-acetylcysteine 5 mM 1 h pretreatment, IGF-1R inhibitor picropodophyllin 50 nM
# [4] = drug present 1 hour before and during EF exposure
Compound,orientation response of cells in an EF (HUVEC cells [1]; [4]),long:short axis ratio / elongation response in EF-treated cells (HUVEC cells [2]),other results
1-L-6-hydroxymethyl-chiro-inositol 2-[(R)-2-O-methyl-3-O-octadecylcarbonate] [Akt inhibitor],significantly decreased,significantly decreased,
"COc1cc([C@@H]2c3cc4c(cc3[C@H](O)[C@H]3COC(=O)[C@@H]23)OCO4)cc(OC)c1OC [IGF-1R inhibitor, picropodophyllin]",,,LLEC-increased keratinocyte migration in presence of blocker [3]: attenuated the increased keratinocyte migration
C/C1=C/C(=O)O[C@@H]2C[C@@H](CC[C@H](C)/C=C\C=C\CC1)O[C@@](O)([C@@H]1CSC(=O)N1)C2 [Latrunculin A],suppressed the orientation response significantly,completely abolished,
CC(=O)N[C@@H](CS)C(=O)O [N-Acetyl Cysteine],,,LLEC-increased keratinocyte migration in presence of blocker [3]: failed to reproduce the increased migration; LLEC-increased keratinocyte migration in presence of blocker ([3]; listed as N-acetyl cysteine): prevented
N#CC(=C(/N)Sc1ccccc1N)/C(C#N)=C(\N)Sc1ccccc1N [U0126],,,orientation index Oi (HUVEC cells [1]): 0.33±0.03; orientation response of cells in an EF (HUVEC cells [1]): decreased the orientation to a similar extent
"COc1cc2ncnc(Nc3ccc(Cl)cc3F)c2cc1OC [VEGFR inhibitor, 4-[(4′-chloro-2′-fluoro)phenylamino]-6,7-dimethoxyquinazoline]",completely abolished,,
C[C@@H](N)[C@H]1CC[C@H](C(=O)Nc2ccncc2)CC1 [Y27632],decreased the orientation response significantly,significantly decreased,
